In PMC7048748, “Anxiolytic Drug FGIN-1-27 Ameliorates Autoimmunity by Metabolic Reprogramming of Pathogenic Th17 Cells” (Scientific Reports, 2020):

Experiments:
Assay type in all cases: cell-based, mouse
ZAP70 = experiment: Phospho ZAP70 staining after anti-CD3/CD28 stimulation; conditions: 10 μM, 24 hours
Procedure: The following day, cells were treated with either DMSO or of FGIN-1-27 (10 μM). For phospho-ZAP70 analyses, cells were stained after 24 hours of treatment using 10 μg/ml of biotinylated anti-CD3 (145-2C11, BD Biosciences) and anti-CD28 (37.51, BD Biosciences) antibodies on ice for 15 minutes, washed, and stimulated in presence of 20 μg/ml of Streptavidin for 10 minutes at 37 degrees. Cells were then fixed in 2% PFA, permeabilized in Methanol/Acetone and stained with anti-phospho ZAP70 antibody (n3kobu5, eBioscience) and anti-CD4 (RM4-5, eBioscience). For phospho-STAT3 analyses, cells were cultured for additional 24 hours in IL-6 free media, before stimulation with 100 ng/ml of mIL-6 for 30 minutes. Cells were then fixed in 2% PFA, permeabilized in Methanol/Acetone and stained with anti-phospho-STAT3 antibody (4/P-STAT3, BD Biosciences) and anti-CD4. Dead cells were excluded using Live/Dead […] (Thermo Fisher) staining prior to stimulation. page 3: Supplementary Figur es Fig S1 (a) Genomic browser screenshot of Tspo depicting normalized RNA-seq read coverage (RPM) in different T cell subsets. Data were downloaded from NCBI GEO (accession number GSE40918) and processed as in Figure 4A. […] (g) Transcript levels for S ta t3 after 24 hours of treatment with DMSO or FGIN-1-27 quantified by qPCR. […]

Th17 cells = experiment: Whole-transcriptome RNA sequencing of treated CD4+ T cells
Procedure: Total RNA extractions for RNA-seq were performed using the mirVana kit (Applied Biosystems). RNA concentration was measured using the Qubit RNA broad range assay in the Qubit Flurometer (Invitrogen) and RNA integrity was determined with Eukaryote Total RNA Nano Series II ChIP on a 2100 Bioanalyzer (Agilent). RNA-seq libraries were prepared using TruSeq RNA sample preparation kit (Illumina). In brief, oligo-dT purified mRNA was fragmented and subjected to first and second strand cDNA synthesis. cDNA fragments were blunt ended, ligated to Illumina adaptors and PCR amplified to enrich for the fragments ligated to adaptors. The resulting cDNA libraries were verified and quantified on Agilent Bioanalyzer and single-end 96 cycle sequencing was conducted (Illumina).
Reads were aligned to the mm10 genome and the GRCm38 v87 transcriptome with STAR v2.5.2a using default parameters and output tracks normalized by RPM (–outWigNorm RPM). RSEM v1.3 was used to calculate gene counts and TPMs on the transcriptome-aligned reads as previously described[37]. Differential expression analysis was performed in R v3.5.2, using DESeq. 2 v1.22.2. […] Heatmaps were generated with the R package, heatmap. Integrative Genomics Viewer v2.4.19 was used for visualization of normalized bigwig tracks.

[1] = test system: S6 ribosomal protein (Ser 235/236) and mTOR (Ser 2448); experiment: Phospho S6 and phospho mTOR staining; conditions: 10, 5 and 2.5 µM
Procedure: For phospho-S6 analyses, cells were cultured for 3 hours in Th17 polarization media on anti-CD3/CD28 coated plates. Cells were then fixed after fixation and permeabilization with a Transcription Factor Staining kit (eBioscience) and stained with anti-phospho-S6 antibody (S235/236, Cell Signaling) and anti-CD4. Dead cells were excluded using Live/Dead stain prior to fixation. For mTOR analyses, anti-phospho-mTOR antibody was used (Ser2448, eBioscience). page 6: […] blot analysis for phosphorylated eIF2α and ATF4 24 hours after treatment with DMSO or FGIN-1-27 (5 and 10 μM). (b) Intracellular phospho S6 ([…]/236) Th17 cells treated with DMSO or FGIN-1-27 […] The black line represents DMSO and the grey filled histogram represent FGIN-1-27 (10μM). The dotted lines (5μ M) and the dashed line represents staining after 2.5μM of FGIN-1-27 treatment. (c) Intracellular phospho mTOR ([…]) Th17 cells treated with DMSO or FGIN-1-27 […] The black line represents DMSO and the grey filled histogram represent FGIN-1-27 (10μM). The dotted lines (5μ M) and the dashed line represents staining after 2.5μM of FGIN-1-27 treatment.

CCCCCCN(CCCCCC)C(=O)Cc1c(-c2ccc(F)cc2)[nH]c2ccccc12 [FGIN-1-27, N, N-di-n-hexyl 2-(4-fluorophenyl) indole-3-acetamide]
phosphorylation of ZAP70 (ZAP70): did not phosphorylate ZAP70
genes encoding glycolytic enzymes (hexokinase, phosphofructokinase, pyruvate kinase) (Th17 cells; 24 hours): significantly down-regulated
differentially expressed genes (Th17 cells; vs DMSO, FDR < 0.05, 24 hours): 587
phosphorylation of S6 ribosomal protein (Ser 235/236) and mTOR (Ser 2448) [1]: dose-dependent decrease
